Assays:
BmoR A117T/F163Y = target: T1, BmoR A117T/F163Y (Thauera butanivorans, UniProt A7MAQ9, A117T/F163Y); assay: cell-based; design: species or system E. coli XL10-Gold; details: n = 3; read-out: Apparent Km
T1 construct: full-length BmoR, biosensor plasmid pWT-A117T/F163Y (PbmoR-bmoR; Pbmo-gfp)
Protocol: (§1) The response values of the above colonies containing various BmoR mutants to n-pentanol, isopentanol, n-butanol or isobutanol were tested. The single colonies were pre-inoculated into 5 mL LB medium with 50 μg/mL carbenicillin and then cultured at 37 °C overnight. […] The excitation and emission wavelengths were set as 470 and 510 nm, respectively. The fluorescence values were normalized as the GFP/OD600 values. Besides, 1 mL of the culture was centrifuged at 5,000 rpm for 5 min. The supernatant was discarded, and the sediment was then resuspended in 2 mL of the physiological saline. 5 μL of the culture was spotted onto glass slides for fluorescence microscopy (UOP 2100). Fifteen colonies which only responded to 10 mM n-pentanol or isopentanol were screened out. The bmoRs in the 15 colonies were amplified and sequenced to identify the mutation sites. Finally, the bmoRs in the five colonies were mutated.
The OD600 values needed to be subtracted from the OD600 value of the blank LB culture. The excitation and emission wavelengths were set as 470 and 510 nm, respectively. The fluorescence values were normalized as the GFP/OD600 values. Besides, the GFP/OD600 values of the strain containing the plasmid pYH7 was regarded as the background fluorescence to be subtracted. Apparent Km values were estimated with Prism 9.5.0 through non-linear regression of the Michaelis-Menten equation. […]

BmoR W128R = target: T2, BmoR W128R (Thauera butanivorans, UniProt A7MAQ9, W128R); assay: Whole-cell BmoR biosensor dose-response (GFP/OD600, Pbmo-gfp reporter) in 96-deep-well plates with 0-60 mM pentanols or 0-100 mM butanols, LB medium at 30 °C, fitted to the Michaelis-Menten equation.; type: cell-based, E. coli XL10-Gold; details: n = 3; read-out: Apparent Km
T2 construct: full-length BmoR, biosensor plasmid pWT-W128R (PbmoR-bmoR; Pbmo-gfp)
T2 sequence (A7MAQ9 entry or part of it W128R): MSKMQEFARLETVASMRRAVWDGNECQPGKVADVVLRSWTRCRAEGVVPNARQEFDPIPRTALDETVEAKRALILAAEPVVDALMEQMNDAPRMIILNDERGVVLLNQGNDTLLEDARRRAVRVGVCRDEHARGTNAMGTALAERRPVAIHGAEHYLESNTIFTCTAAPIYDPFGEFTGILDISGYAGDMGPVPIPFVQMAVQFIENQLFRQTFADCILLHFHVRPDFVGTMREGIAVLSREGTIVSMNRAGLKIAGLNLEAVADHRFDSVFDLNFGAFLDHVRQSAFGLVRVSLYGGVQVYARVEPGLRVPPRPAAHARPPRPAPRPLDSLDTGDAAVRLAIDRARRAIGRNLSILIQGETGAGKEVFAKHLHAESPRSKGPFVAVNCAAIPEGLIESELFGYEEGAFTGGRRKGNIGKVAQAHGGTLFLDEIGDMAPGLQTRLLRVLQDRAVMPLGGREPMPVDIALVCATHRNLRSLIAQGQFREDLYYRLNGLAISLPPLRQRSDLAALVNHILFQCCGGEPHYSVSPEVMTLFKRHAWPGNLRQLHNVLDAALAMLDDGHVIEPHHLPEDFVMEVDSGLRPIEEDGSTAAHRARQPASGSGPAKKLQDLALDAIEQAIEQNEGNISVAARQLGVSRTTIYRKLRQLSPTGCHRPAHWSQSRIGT
Protocol: as §1
(§2) The OD600 values needed to be subtracted from the OD600 value of the blank LB culture. The excitation and emission wavelengths were set as 470 and 510 nm, respectively. The fluorescence values were normalized as the GFP/OD600 values. Besides, the GFP/OD600 values of the strain containing the plasmid pYH7 was regarded as the background fluorescence to be subtracted. Apparent Km values were estimated with Prism 9.5.0 through non-linear regression of the Michaelis-Menten equation. Finally, one or two effective mutants with orthogonal response towards n-pentanol or isopentanol were obtained.

BmoR WT = target: T3, BmoR WT (Thauera butanivorans, UniProt A7MAQ9); assay: as above; type: cell-based, E. coli XL10-Gold; details: n = 3; read-out: Apparent Km
T3 construct: full-length BmoR, expressed from biosensor plasmid (PbmoR-bmoR; Pbmo-gfp) in E. coli; hexamer
T3 sequence (A7MAQ9 1-669): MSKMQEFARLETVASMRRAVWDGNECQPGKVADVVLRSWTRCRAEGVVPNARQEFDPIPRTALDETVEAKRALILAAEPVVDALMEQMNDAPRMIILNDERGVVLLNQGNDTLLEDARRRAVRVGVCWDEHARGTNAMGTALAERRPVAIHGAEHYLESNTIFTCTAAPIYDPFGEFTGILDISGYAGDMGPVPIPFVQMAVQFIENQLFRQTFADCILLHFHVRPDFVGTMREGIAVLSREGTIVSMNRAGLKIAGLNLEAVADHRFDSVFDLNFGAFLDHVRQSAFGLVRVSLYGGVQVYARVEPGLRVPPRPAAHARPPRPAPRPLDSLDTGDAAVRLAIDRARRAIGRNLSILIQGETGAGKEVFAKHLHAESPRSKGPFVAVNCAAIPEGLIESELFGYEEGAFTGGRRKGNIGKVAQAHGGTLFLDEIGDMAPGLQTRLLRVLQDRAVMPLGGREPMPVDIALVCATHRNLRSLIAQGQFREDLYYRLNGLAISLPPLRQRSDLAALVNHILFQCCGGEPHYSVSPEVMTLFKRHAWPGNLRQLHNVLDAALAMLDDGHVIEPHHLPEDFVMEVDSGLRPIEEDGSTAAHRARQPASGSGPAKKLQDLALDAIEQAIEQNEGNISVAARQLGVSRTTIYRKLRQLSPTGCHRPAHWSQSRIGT
Protocol: as §1, §2

[1] = target: T4, BmoR WT (fusion with sfGFP) (Thauera butanivorans, UniProt A7MAQ9); assay: MicroScale Thermophoresis of sfGFP-fused BmoR in E. coli BL21(DE3) lysate supernatant, 16-point ligand dilution in assay buffer with 1 % DMSO, incubated at 37 °C for 15 min.; type: binding; details: n = 3
T4 construct: SUMO-BmoR-TEV-sfGFP-His fusion, E. coli BL21(DE3) lysate supernatant
T4 sequence (A7MAQ9 1-669): T3 sequence (A7MAQ9 1-669)
Protocol: (§3) Plasmids pWT-SUMO-BmoR-TEV-sfGFP-His, pWT-SUMO-BmoR^M94V/A117T/F163Y/F272L-TEV-sfGFP-His, and pWT-SUMO-BmoR^M94V/W128R/F272L-TEV-sfGFP-His were individually transformed into E. coli BL21(DE3). […] Subsequently, 100 µL of the seed culture was transferred to 100 mL LB medium and grown at 37 °C until the OD600 value reached 0.8. 0.1 mM IPTG was added into the culture, and the culture was incubated at 16 °C, 170 rpm for 12–18 h. 50 mL centrifuge tubes were used to centrifuge the culture at 5,000 rpm for 15 min to collect the cell pellets. The pellets were then resuspended in 15 mL of the binding buffer, and the cells were disrupted using the ultrasonic cell crusher. The mixture was then centrifuged at 10,000 rpm for 30 min to collect the supernatant. The Kd values of the wild-type BmoR and the mutants towards four SMs were measured by the MicroScale Thermophoresis (MST, Nanotemper) from Wuhan Bio-lab Biotechnology Co., Ltd.
(§4) A 10 µL aliquot of the supernatant was diluted three folds with the assay buffer. The MST sample chamber was opened, and the tray was removed. The diluted protein sample was aspirated using a capillary and placed in the corresponding slot of the tray. The information of the protein samples and assay bugger was input, and the type of capillary was selected. The excitation power was set to “Auto”, and MST power was set to “High”. The concentration of the samples was adjusted using the assay buffer to 1/3 for BmoR^WT, BmoR^M94V/A117T/F163Y/F272L and BmoR^M94V/W128R/F272L. The samples were diluted to 100 µL/2000 µM using the assay buffer. Two eight-well strips were prepared and labeled from 1st to 16th. 10 µL of the assay buffer (1 % DMSO) was added into the 2nd-16th tubes, while 20 µL of the prepared sample was added to the 1st tube. 10 µL from the 1st tube was sequentially diluted into the 2nd-16th tubes. Subsequently, 10 µL of the lysate was added to each tube and mixed thoroughly. The mixed samples were incubated at 37 °C for 15 min before aspirating with a capillary to load into the sample tray. The software was started to begin the experiment.

[2] = target: T5, BmoR M94V/A117T/F163Y/F272L (fusion with sfGFP) (Thauera butanivorans, UniProt A7MAQ9, A117T/F163Y/F272L/M94V); assay: as above; type: binding; details: n = 3
T5 construct: SUMO-BmoR-TEV-sfGFP-His fusion, E. coli BL21(DE3) lysate supernatant
T5 sequence (A7MAQ9 entry or part of it M94V/A117T/F163Y/F272L): as the sequence (A7MAQ9 entry or part of it W128R) above, with M94V, A117T, R128W, F163Y, F272L counted along it
Protocol: as §3, §4

[3] = target: T6, BmoR M94V/W128R/F272L (fusion with sfGFP) (Thauera butanivorans, UniProt A7MAQ9, F272L/M94V/W128R); assay: as above; type: binding; details: n = 3
T6 construct: SUMO-BmoR-TEV-sfGFP-His fusion, E. coli BL21(DE3) lysate supernatant
T6 sequence (A7MAQ9 entry or part of it M94V/W128R/F272L): as the sequence (A7MAQ9 entry or part of it W128R) above, with M94V, F272L counted along it
Protocol: as §3, §4

E. coli MG1655 = assay: Tolerance of wild-type MG1655 to pentanols (OD600)
Protocol: To assess the tolerance of wild-type MG1655 to n-pentanol or isopentanol, the single colony of wild-type MG1655 was inoculated into 3 mL LB medium and cultured at 37 °C for 8–10 h to obtain the seed culture. 50 µL of the seed culture was transferred to 5 mL LB medium adding 0–100 mM n-pentanol or isopentanol and grown at 37 °C with 220 rpm for 12 h. A microplate reader (BioTek Cytation 3) was used to detect the OD600 values.

Δ29 = details: equivalent isopentanol stress (40 mM)
Protocol: (§5) A library of E. coli MG1655-derived strains with different genomic large-fragment deletions ranging from 14 to 143 kb was constructed and stored. To screen pentanol-tolerant strains, the strains from the library were inoculated into 3 mL LB medium and cultured at 37 °C for 8–10 h to obtain seed cultures. Subsequently, 50 µL of the seed culture was transferred to 5 mL LB medium in the presence of 20 mM n-pentanol or isopentanol and grown at 37 °C with 220 rpm for 12 h. A microplate reader (BioTek Cytation 3) was used to detect the OD600 values.

Δ33 = details: 40 mM
Protocol: as §5

T1 sequence (A7MAQ9 entry or part of it A117T/F163Y): as the sequence (A7MAQ9 entry or part of it W128R) above, with A117T, R128W, F163Y counted along it

SMILES	EC50 (BmoR A117T/F163Y)	EC50 (BmoR W128R)	EC50 (BmoR WT)	Kd [1]	other results
CC(C)CO [Isobutanol, 2-methyl-1-propanol]	22.3 mM	63.3 mM	8.75 mM	11800 nM	–
CCCCCO [n-Pentanol, 1-pentanol]	59.5 mM	–	5.09 mM	106 nM	Kd [2]: 0.322 mM
CC(C)CCO [Isopentanol, 3-methyl-1-butanol]	–	58.2 mM	3.99 mM	93.8 nM	Kd [3]: 26.1 nM
CCCCCO [n-pentanol]	–	–	–	–	fold reduction of OD600 (E. coli MG1655; 20 mM): 2.67 fold; OD600 of wild-type MG1655 (E. coli MG1655; 20 mM, 12 h): 0.420 ± 0.032; growth of wild-type MG1655 (in words) (E. coli MG1655; 60 mM): failing to grow
CC(C)CCO [isopentanol]	–	–	–	–	fold higher biomass accumulation than the wild type (Δ29): 1.58 fold; fold increase of OD600 / biomass compared to the wild type (Δ33): 1.34 fold
